Results: publication PMC5807445, “A printable hydrogel microarray for drug screening avoids false positives associated with promiscuous aggregating inhibitors” (Nature Communications, 2018)

How the values were obtained:
TEM-1 β-lac [1] = molecular target: T1, TEM-1 β-lac (Escherichia coli, UniProt P62593); experiment: Solution-based β-lac assay (nitrocefin hydrolysis, absorbance at 492 nm); assay type: biochemical; conditions: promiscuous aggregating inhibitors; diluted from 10 mM DMSO stocks
TEM-1 β-lac [2] = molecular target: T1, TEM-1 β-lac; experiment: Printed hydrogel-based β-lac assay (nitrocefin, colorimetric image analysis); assay type: biochemical; conditions: promiscuous aggregating inhibitors; starting concentration 100 μM
Method: Inhibitor solutions and nitrocefin (a colorimetric β-lac substrate) were subsequently deposited on the microzones at different concentrations using a high-throughput dispensing robot. The resulting colorimetric read-out of β-lac activity was quantified via image analysis.
POH ink solution was prepared with a final concentration of 50 nM β-lac and used to print hydrogel spots on a 96-well paper microzone plate as described previously. […] The inhibitor was incubated with the printed β-lac for 20 min, after which the assay was initiated with the addition of 5 μl of nitrocefin (500 μM) to each microzone. […] Images were taken with a Canon DSLR camera (operated in manual focus mode without flash) after 25 min. The wax-printed background was filtered out using GIMP software (Version 2.8.16). Image analysis was performed using Fiji, with the converted substrate color extracted using the Color Deconvolution plugin. Extracted images were inverted and converted to 8 bit grayscale images. The intensity of each sample was measured and presented as a ratio of the control image (i.e., a microzone not treated with inhibitor). Calculation of IC50 values was carried out in OriginPro by plotting the calculated percentage inhibition against the added inhibitor concentration. Curve fitting was performed with the dose–response function (OriginLab Corporation, Northampton, MA, USA).

[3] = Promiscuous aggregating inhibitor size measurement by dynamic light scattering (DLS); assay type: physicochemical; conditions: 100 μM solutions; for Aggregate size (Z-average diameter, DLS) / Polydispersity (DLS): 23°C
Method: Promiscuous aggregating inhibitor size measurement
Dynamic light scattering measurements were performed using a Zetasizer Nano ZS instrument (Malvern). The intensity of backscattered light was measured at a 173° angle. Data collection and analysis were performed using the Dispersion Technology Software (version 6.0) from Malvern. Samples of Rottlerin, BIS IX and TIPT at 100 μM concentrations were analyzed in a plastic cuvette with a 10 mm path length. Prior to measurement, samples were equilibrated for 120 s at 23°C. For each sample, 10 runs were performed with three repetitions. The intensity size distribution, Z-average diameter and polydispersity index was collected for each sample. Note that no significant signal was acquired from DLS measurements on the true inhibitors, confirming their solution state.

β-lactamase = conditions: reported literature values; cited from earlier work

T1 sequence (P62593 24-286 limits assumed): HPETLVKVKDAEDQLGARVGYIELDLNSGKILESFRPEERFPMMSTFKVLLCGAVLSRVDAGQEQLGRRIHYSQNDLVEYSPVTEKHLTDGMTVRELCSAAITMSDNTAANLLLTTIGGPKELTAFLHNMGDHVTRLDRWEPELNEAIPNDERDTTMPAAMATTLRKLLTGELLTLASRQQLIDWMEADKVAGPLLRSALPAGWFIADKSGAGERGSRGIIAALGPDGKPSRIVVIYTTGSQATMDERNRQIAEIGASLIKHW

Structure (SMILES)	Inhibition of β-lac in the solution-based assay (false-positive hit) (TEM-1 β-lac [1])	Specific inhibition of β-lac in the hydrogel-based assay (TEM-1 β-lac [2])	Particle size range of aggregates (DLS intensity distribution) [3]	Aggregate size (Z-average diameter, DLS) [3] [nm]	Polydispersity (DLS) [3]	IC50 (β-lactamase) [µM]
[H]/N=C(/N)SCCCn1cc(C2=C(c3cn(C)c4ccccc34)C(=O)NC2=O)c2ccccc21 [BIS IX, bisindolylmaleimide IX]	inhibited	no specific inhibition	50-800 nm	365 ± 9	0.36 ± 0.02	
CC(=O)c1c(O)c(C)c(O)c(Cc2c(O)c3c(c(C(=O)/C=C/c4ccccc4)c2O)OC(C)(C)C=C3)c1O [Rottlerin, rottlerin]	inhibited	no specific inhibition	50-800 nm	188 ± 1	0.24 ± 0.01	
CC1(C)[C@H](C(=O)O)N2C(=O)C[C@H]2S1(=O)=O [Sulbactam, sulbactam]						6.1
O=C1OC(c2cc(I)c(O)c(I)c2)(c2c(I)cc(O)cc2I)c2ccccc21 (centres unmarked) [TIPT, tetraiodophenolphthalein]	inhibited	no specific inhibition	50-800 nm	154 ± 1	0.16 ± 0.02	
C[C@]1(Cn2ccnn2)[C@H](C(=O)O)N2C(=O)C[C@H]2S1(=O)=O [Tazobactam, tazobactam]						0.04
